Results from US9611267B2, “Substituted tricyclic compounds as FGFR inhibitors” (Incyte Corporation, priority 2012, dated 2017).
Like-named read-outs stand apart in the source and are kept apart here.

Experiments:
Format in all cases: biochemical
FGFR2 = FGFR2 (Homo sapiens (Human), UniProt P21802); experiment: FGFR enzymatic assay (FRET peptide phosphorylation), FGFR2; details: FGFR2 enzyme 0.01 nM, ATP 100 μM
Procedure: (§1) The inhibitor potency of the exemplified compounds was measured in an enzyme assay that measures peptide phosphorylation using FRET measurements to detect product formation. Inhibitors were serially diluted in DMSO and a volume of 0.5 μL was transferred to the wells of a 384-well plate. For FGFR3, a 10 μL volume of FGFR3 enzyme (Millipore) diluted in assay buffer (50 mM HEPES, 10 mM MgCl2, 1 mM EGTA, 0.01% Tween-20, 5 mM DTT, pH 7.5) was added to the plate and pre-incubated for 5-10 minutes. Appropriate controls (enzyme blank and enzyme with no inhibitor) were included on the plate. […] The plate was incubated at 25° C. for 1 hr. […] The plate was allowed to equilibrate for ˜1 hr before scanning the wells on a PheraStar plate reader (BMG Labtech).
(§2) The enzymes were purchased from Millipore or Invitrogen.
(§3) GraphPad prism3 was used to analyze the data. The IC50 values were derived by fitting the data to the equation for a sigmoidal dose-response with a variable slope. Y=Bottom+(Top−Bottom)/(1+10^((LogIC50−X)*HillSlope)) where X is the logarithm of concentration and Y is the response.

FGFR3 = FGFR3 (Homo sapiens (Human), UniProt P22607); experiment: FGFR enzymatic assay (FRET peptide phosphorylation), FGFR3; details: FGFR3 enzyme (Millipore), ATP 140 μM
Procedure: as §1, §3

FGFR1 = FGFR1 (Homo sapiens (Human), UniProt P11362); experiment: FGFR enzymatic assay (FRET peptide phosphorylation), FGFR1
Procedure: as §1, §2, §3

[1] = FGFR1 enzyme 0.02 nM, ATP 210 μM

FGFR3, sequence (P22607 23-806): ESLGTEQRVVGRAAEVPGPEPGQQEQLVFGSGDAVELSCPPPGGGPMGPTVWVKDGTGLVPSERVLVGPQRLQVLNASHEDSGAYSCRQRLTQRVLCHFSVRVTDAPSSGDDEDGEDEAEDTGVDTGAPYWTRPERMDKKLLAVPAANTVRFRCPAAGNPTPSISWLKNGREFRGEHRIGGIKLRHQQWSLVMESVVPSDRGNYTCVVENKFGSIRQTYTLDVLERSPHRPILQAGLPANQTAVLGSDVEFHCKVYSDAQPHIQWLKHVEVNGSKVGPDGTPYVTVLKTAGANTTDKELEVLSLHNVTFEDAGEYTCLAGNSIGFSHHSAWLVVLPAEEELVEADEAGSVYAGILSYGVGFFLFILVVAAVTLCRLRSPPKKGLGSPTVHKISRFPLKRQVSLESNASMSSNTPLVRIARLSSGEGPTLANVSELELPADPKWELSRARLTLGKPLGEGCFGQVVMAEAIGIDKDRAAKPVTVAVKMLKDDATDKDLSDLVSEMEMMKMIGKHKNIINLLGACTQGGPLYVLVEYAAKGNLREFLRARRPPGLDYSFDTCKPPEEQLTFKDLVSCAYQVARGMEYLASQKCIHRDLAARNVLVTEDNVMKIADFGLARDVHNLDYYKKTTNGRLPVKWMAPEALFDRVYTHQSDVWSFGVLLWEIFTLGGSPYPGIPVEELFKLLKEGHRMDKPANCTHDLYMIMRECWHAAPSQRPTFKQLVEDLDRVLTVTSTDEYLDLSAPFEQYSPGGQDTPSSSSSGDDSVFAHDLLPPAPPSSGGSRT
FGFR2, sequence (P21802 22-821): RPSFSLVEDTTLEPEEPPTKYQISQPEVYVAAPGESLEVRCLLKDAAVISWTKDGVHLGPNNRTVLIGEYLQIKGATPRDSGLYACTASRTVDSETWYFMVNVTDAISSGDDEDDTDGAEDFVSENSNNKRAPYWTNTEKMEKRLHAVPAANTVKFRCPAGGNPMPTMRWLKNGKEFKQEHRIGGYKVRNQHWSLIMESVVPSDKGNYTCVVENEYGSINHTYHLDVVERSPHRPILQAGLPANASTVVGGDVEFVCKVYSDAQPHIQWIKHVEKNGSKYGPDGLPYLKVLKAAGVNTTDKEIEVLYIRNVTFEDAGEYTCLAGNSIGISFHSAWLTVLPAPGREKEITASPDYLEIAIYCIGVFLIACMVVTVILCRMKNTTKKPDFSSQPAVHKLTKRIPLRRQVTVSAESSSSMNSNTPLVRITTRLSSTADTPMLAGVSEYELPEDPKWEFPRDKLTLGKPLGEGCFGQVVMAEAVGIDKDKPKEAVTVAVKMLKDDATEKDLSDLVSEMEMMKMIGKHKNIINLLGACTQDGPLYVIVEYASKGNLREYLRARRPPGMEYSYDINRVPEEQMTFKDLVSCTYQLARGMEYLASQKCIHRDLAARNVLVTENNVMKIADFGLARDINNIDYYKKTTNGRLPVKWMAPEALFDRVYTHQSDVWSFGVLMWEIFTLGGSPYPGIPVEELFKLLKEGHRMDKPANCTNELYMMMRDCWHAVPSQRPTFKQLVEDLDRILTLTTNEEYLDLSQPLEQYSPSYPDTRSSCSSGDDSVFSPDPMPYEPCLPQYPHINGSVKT
FGFR1, sequence (P11362 22-822): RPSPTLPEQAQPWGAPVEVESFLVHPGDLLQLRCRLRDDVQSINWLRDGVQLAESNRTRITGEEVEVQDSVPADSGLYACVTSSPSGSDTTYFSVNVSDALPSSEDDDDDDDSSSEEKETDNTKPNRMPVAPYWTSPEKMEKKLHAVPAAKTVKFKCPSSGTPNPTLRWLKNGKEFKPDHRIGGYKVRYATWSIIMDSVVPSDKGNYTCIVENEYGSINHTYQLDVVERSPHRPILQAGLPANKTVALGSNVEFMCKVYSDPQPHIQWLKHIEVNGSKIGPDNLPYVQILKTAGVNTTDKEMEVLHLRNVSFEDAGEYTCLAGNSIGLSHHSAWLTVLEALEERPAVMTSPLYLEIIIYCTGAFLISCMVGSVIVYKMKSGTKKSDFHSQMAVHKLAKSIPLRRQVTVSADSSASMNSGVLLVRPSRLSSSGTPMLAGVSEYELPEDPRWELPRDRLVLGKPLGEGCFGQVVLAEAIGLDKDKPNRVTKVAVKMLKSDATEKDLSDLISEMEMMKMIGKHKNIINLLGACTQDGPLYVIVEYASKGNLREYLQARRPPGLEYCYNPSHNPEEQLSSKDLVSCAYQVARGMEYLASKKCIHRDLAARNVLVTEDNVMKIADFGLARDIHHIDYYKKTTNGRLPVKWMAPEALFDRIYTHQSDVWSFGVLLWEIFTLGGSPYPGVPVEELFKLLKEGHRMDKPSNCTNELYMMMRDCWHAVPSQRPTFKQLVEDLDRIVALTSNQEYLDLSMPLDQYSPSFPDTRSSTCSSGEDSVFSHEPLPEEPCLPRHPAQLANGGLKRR

IC50 (FGFR2) [nM] | IC50 (FGFR3) [nM] | IC50 (FGFR1; [1]) [nM] | SMILES | IC50 (FGFR1) [nM]
< 100 | < 100 | < 100 | COc1cc(OC)cc(N2Cc3cnc4[nH]ccc4c3N(C)C2=O)c1 [Example 1, 3-(3,5-Dimethoxyphenyl)-1-methyl-1,3,4,7-tetrahydro-2H-pyrrolo[3′,2′:5,6]pyrido[4,3-d]pyrimidin-2-one] | 
< 100 | < 100 | < 100 | COc1cc(OC)cc(N2Cc3cnc4[nH]ccc4c3NC2=O)c1 [Example 2, 3-(3,5-Dimethoxyphenyl)-1,3,4,7-tetrahydro-2H-pyrrolo[3′,2′:5,6]pyrido[4,3-d]pyrimidin-2-one] | 
< 100 | < 100 | < 100 | CCN1C(=O)N(c2cc(OC)cc(OC)c2)Cc2cnc3[nH]ccc3c21 [Example 3, 3-(3,5-Dimethoxyphenyl)-1-ethyl-1,3,4,7-tetrahydro-2H-pyrrolo[3′,2′:5,6]pyrido[4,3-d]pyrimidin-2-one] | 
< 100 | < 100 | < 100 | COc1cc(OC)cc(N2Cc3cnc4[nH]ccc4c3N(C3CC3)C2=O)c1 [Example 4, 1-Cyclopropyl-3-(3,5-dimethoxyphenyl)-1,3,4,7-tetrahydro-2H-pyrrolo[3′,2′:5,6]pyrido[4,3-d]pyrimidin-2-one] | 
< 100 | < 100 | < 100 | COc1cc(OC)cc(N2Cc3cnc4[nH]ccc4c3N(CC3CC3)C2=O)c1 [Example 5, 1-(Cyclopropylmethyl)-3-(3,5-dimethoxyphenyl)-1,3,4,7-tetrahydro-2H-pyrrolo[3′,2′:5,6]pyrido[4,3-d]pyrimidin-2-one] | 
< 100 | < 100 | < 100 | COc1cc(OC)cc(N2Cc3cnc4[nH]ccc4c3N(Cc3ccccc3)C2=O)c1 [Example 6, 1-Benzyl-3-(3,5-dimethoxyphenyl)-1,3,4,7-tetrahydro-2H-pyrrolo[3′,2′:5,6]pyrido[4,3-d]pyrimidin-2-one] | 
< 100 | < 100 | < 100 | COc1cc(OC)cc(N2Cc3cnc4[nH]c(-c5ccc(N6CCN(C)CC6)cc5)cc4c3N(C)C2=O)c1 [Example 10, 3-(3,5-Dimethoxyphenyl)-1-methyl-8-[4-(4-methylpiperazin-1-yl)phenyl]-1,3,4,7-tetrahydro-2H-pyrrolo[3′,2′:5,6]pyrido[4,3-d]pyrimidin-2-one] | 
< 100 | < 100 | < 100 | COc1cc(OC)cc(N2Cc3cnc4[nH]c(-c5cnn(C)c5)cc4c3N(C)C2=O)c1 [Example 11, 3-(3,5-Dimethoxyphenyl)-1-methyl-8-(1-methyl-1H-pyrazol-4-yl)-1,3,4,7-tetrahydro-2H-pyrrolo[3′,2′:5,6]pyrido[4,3-d]pyrimidin-2-one] | 
< 100 | < 100 | < 100 | CNC(=O)c1cc2c3c(cnc2[nH]1)CN(c1cc(OC)cc(OC)c1)C(=O)N3C [Example 12, 3-(3,5-Dimethoxyphenyl)-N,1-dimethyl-2-oxo-2,3,4,7-tetrahydro-1H-pyrrolo[3′,2′:5,6]pyrido[4,3-d]pyrimidine-8-carboxamide] | 
< 100 | < 100 | < 100 | COc1cc(OC)c(Cl)c(N2Cc3cnc4[nH]c(-c5cnn(C)c5)cc4c3N(C)C2=O)c1 [Example 13, 3-(2-Chloro-3,5-dimethoxyphenyl)-1-methyl-8-(1-methyl-1H-pyrazol-4-yl)-1,3,4,7-tetrahydro-2H-pyrrolo[3′,2′:5,6]pyrido[4,3-d]pyrimidin-2-one] | 
< 100 | < 100 | < 100 | COc1cc(OC)c(Cl)c(N2Cc3cnc4[nH]c(-c5cnn(CCO)c5)cc4c3N(C)C2=O)c1 [Example 14, 3-(2-Chloro-3,5-dimethoxyphenyl)-8-[1-(2-hydroxyethyl)-1H-pyrazol-4-yl]-1-methyl-1,3,4,7-tetrahydro-2H-pyrrolo[3′,2′:5,6]pyrido[4,3-d]pyrimidin-2-one] | 
< 100 | < 100 | < 100 | COc1cc(OC)c(Cl)c(N2Cc3cnc4[nH]c(-c5ccnn5C)cc4c3N(C)C2=O)c1 [Example 15, 3-(2-Chloro-3,5-dimethoxyphenyl)-1-methyl-8-(1-methyl-1H-pyrazol-5-yl)-1,3,4,7-tetrahydro-2H-pyrrolo[3′,2′:5,6]pyrido[4,3-d]pyrimidin-2-one] | 
< 100 | < 100 | < 100 | COc1cc(OC)c(Cl)c(N2Cc3cnc4[nH]c(C#N)cc4c3N(C)C2=O)c1 [Example 16, 3-(2-Chloro-3,5-dimethoxyphenyl)-1-methyl-2-oxo-2,3,4,7-tetrahydro-1H-pyrrolo[3′,2′:5,6]pyrido[4,3-d]pyrimidine-8-carbonitrile] | 
< 100 | < 100 | < 100 | COc1cc(OC)cc(N2Cc3cnc4[nH]c(C5CCN(C)CC5)cc4c3N(C)C2=O)c1 [Example 18, 3-(3,5-Dimethoxyphenyl)-1-methyl-8-(1-methylpiperidin-4-yl)-1,3,4,7-tetrahydro-2H-pyrrolo[3′,2′:5,6]pyrido[4,3-d]pyrimidin-2-one] | 
< 100 | < 100 | < 100 | COc1cc(OC)cc(N2Cc3cnc4[nH]c(C(=O)N(C)C)cc4c3N(C)C2=O)c1 [Example 19, 3-(3,5-Dimethoxyphenyl)-N,N,1-trimethyl-2-oxo-2,3,4,7-tetrahydro-1H-pyrrolo[3′,2′:5,6]pyrido[4,3-d]pyrimidine-8-carboxamide] | 
< 100 | < 100 | < 100 | COc1cc(OC)cc(N2Cc3cnc4[nH]c(C(=O)N5CC(O)C5)cc4c3N(C)C2=O)c1 [Example 20, 3-(3,5-Dimethoxyphenyl)-8-[(3-hydroxyazetidin-1-yl)carbonyl]-1-methyl-1,3,4,7-tetrahydro-2H-pyrrolo[3′,2′:5,6]pyrido[4,3-d]pyrimidin-2-one] | 
< 100 | < 100 |  | COc1cc(OC)c(F)c(N2Cc3cnc4c(c3N(C)C2=O)C2(CC2)C(=O)N4)c1F [Example 59, 3′-(2,6-Difluoro-3,5-dimethoxyphenyl)-1′-methyl-4′,7′-dihydrospiro[cyclopropane-1,9′-pyrrolo[3′,2′:5,6]pyrido[4,3-d]pyrimidine]-2′,8′(1′H,3′H)-dione] | 
< 100 | < 100 |  | COc1cc(OC)c(F)c(N2Cc3cnc4c(c3N(c3cccc(F)c3F)C2=O)CC(=O)N4)c1F [Example 77, 3-(2,6-difluoro-3,5-dimethoxyphenyl)-1-(2,3-difluorophenyl)-3,4,7,9-tetrahydro-1H-pyrrolo[3′,2′:5,6]pyrido[4,3-d]pyrimidine-2,8-dione] | 
< 100 | < 100 |  | COc1cc(OC)c(F)c(N2Cc3cnc4c(c3N(c3ccc(C#N)cc3)C2=O)CC(=O)N4)c1F [Example 122, 4-[3-(2,6-difluoro-3,5-dimethoxyphenyl)-2,8-dioxo-2,3,4,7,8,9-hexahydro-1H-pyrrolo[3′,2′:5,6]pyrido[4,3-d]pyrimidin-1-yl]benzonitrile] | 

SMILES | IC50 (FGFR2) [nM] | IC50 (FGFR3) [nM] | IC50 (FGFR1; [1]) [nM] | IC50 (FGFR1) [nM]
COc1cc(OC)cc(N2Cc3cnc4[nH]c(C5=CCN(C)CC5)cc4c3N(C)C2=O)c1 [Example 17, 3-(3,5-Dimethoxyphenyl)-1-methyl-8-(1-methyl-1,2,3,6-tetrahydropyridin-4-yl)-1,3,4,7-tetrahydro-2H-pyrrolo[3′,2′:5,6]pyrido[4,3-d]pyrimidin-2-one] | < 100 | < 100 |  | < 100
